A value given as a limit tells only on which side of the number the result lay.

This is an account of results in ChEMBL document CHEMBL1177773, “Design, synthesis and anticancer activity of piperazine hydroxamates and their histone deacetylase (HDAC) inhibitory activity” (Bioorg Med Chem Lett, 2010).

One assay concerns U-251. In words: Cytotoxicity against human U251 cells after 48 hrs by MTT assay. The format is functional. To be noted: for CC50: read-out: LC50 (the source's name).
For another assay, the system named is HCT-116. Briefly: Cytotoxicity against human HCT116 cells after 48 hrs by MTT assay. The format is functional. To be noted: for CC50: read-out: LC50 (the source's name).
The next assay deals with NCI-H460. Briefly: Cytotoxicity against human NCI-H460 cells after 48 hrs by MTT assay. The assay is classed as functional. To be noted: for CC50: read-out: LC50 (the source's name).
A further assay deals with HL-60. In words: Growth inhibition of human HL60 cells after 48 hrs. To be noted: HL-60, 48 h. The assay is classed as functional, cell-based.
Another assay concerns the target T1, Histone deacetylase 8 (Homo sapiens, UniProt Q9BY41).
T1 sequence (Q9BY41 whole entry): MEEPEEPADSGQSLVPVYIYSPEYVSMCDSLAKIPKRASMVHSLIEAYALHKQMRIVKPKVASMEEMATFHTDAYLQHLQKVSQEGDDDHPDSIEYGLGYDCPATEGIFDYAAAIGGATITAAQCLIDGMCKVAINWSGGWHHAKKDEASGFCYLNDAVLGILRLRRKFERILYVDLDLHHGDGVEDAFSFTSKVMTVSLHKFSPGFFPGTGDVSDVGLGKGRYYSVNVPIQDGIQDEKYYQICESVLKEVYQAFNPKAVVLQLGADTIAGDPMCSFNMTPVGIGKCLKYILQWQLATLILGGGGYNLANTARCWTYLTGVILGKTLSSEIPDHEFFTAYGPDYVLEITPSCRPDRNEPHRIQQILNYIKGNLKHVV
Briefly: Inhibition of human HDAC8.

On to `O=C(NO)N1CCN(C(=S)N/N=C/c2ccccc2Cl)CC1`, for which the GI50 with U-251 (Homo sapiens, U-251, 48 h) worked out at 13.5 µM; in the assay on HCT-116 (Homo sapiens, HCT-116, 48 h), 11.5 µM; with NCI-H460 (Homo sapiens, NCI-H460, 48 h), 30 µM. Further, the CC50 in the assay on U-251 (Homo sapiens, U-251, 48 h) was greater than 100 µM; in the assay with HCT-116 (Homo sapiens, HCT-116, 48 h) it was greater than 100 µM; in the assay with NCI-H460 (Homo sapiens, NCI-H460, 48 h), greater than 100 µM.
As to `O=C1Nc2ccccc2/C1=N/NC(=S)N1CCN(C(=O)NO)CC1`, the GI50 in the assay on U-251 (Homo sapiens, U-251, 48 h) was greater than 100 µM; in the assay on HCT-116 (Homo sapiens, HCT-116, 48 h), greater than 100 µM; in the assay with NCI-H460 (Homo sapiens, NCI-H460, 48 h), greater than 100 µM. Also, the CC50 in the assay on U-251 (Homo sapiens, U-251, 48 h) was greater than 100 µM; in the assay with HCT-116 (Homo sapiens, HCT-116, 48 h), greater than 100 µM; in the assay on NCI-H460 (Homo sapiens, NCI-H460, 48 h), greater than 100 µM.
Regarding `O=C(NO)N1CCN(C(=S)N/N=C/c2c3ccccc3cc3ccccc23)CC1`, the 50% growth inhibitory concentration (GI50) in the assay with U-251 (Homo sapiens, U-251, 48 h) turned out to be 65 µM; in the assay with HCT-116 (Homo sapiens, HCT-116, 48 h), 70 µM; in the assay on NCI-H460 (Homo sapiens, NCI-H460, 48 h), 9.5 µM. In addition, the CC50 in the assay with U-251 (Homo sapiens, U-251, 48 h) was greater than 100 µM; in the assay with HCT-116 (Homo sapiens, HCT-116, 48 h), greater than 100 µM; in the assay on NCI-H460 (Homo sapiens, NCI-H460, 48 h) it was greater than 100 µM.
`O=C(NO)N1CCN(C(=S)N/N=C/c2ccccc2O)CC1`: the GI50 in the assay on U-251 (Homo sapiens, U-251, 48 h) amounted to 14.2 µM; in the assay with HCT-116 (Homo sapiens, HCT-116, 48 h), 8.6 µM; in the assay with NCI-H460 (Homo sapiens, NCI-H460, 48 h) it was 5.15 µM. Further, the CC50 was greater than 100 µM in the assay on U-251 (Homo sapiens, U-251, 48 h); greater than 100 µM in the assay on HCT-116 (Homo sapiens, HCT-116, 48 h); greater than 100 µM in the assay with NCI-H460 (Homo sapiens, NCI-H460, 48 h). The concentration for half-maximal inhibition (IC50) in the assay on HL-60 worked out at 0.6 µM; against Histone deacetylase 8, 33.7 µM.
Take `O=C(NO)N1CCN(C(=S)N/N=C/c2ccc(Cl)cc2)CC1`: the GI50 in the assay with U-251 (Homo sapiens, U-251, 48 h) worked out at 8.5 µM; with HCT-116 (Homo sapiens, HCT-116, 48 h), 11.6 µM; in the assay on NCI-H460 (Homo sapiens, NCI-H460, 48 h), 16 µM. For the same compound, the CC50 is greater than 100 µM in the assay on U-251 (Homo sapiens, U-251, 48 h); greater than 100 µM with HCT-116 (Homo sapiens, HCT-116, 48 h); greater than 100 µM in the assay on NCI-H460 (Homo sapiens, NCI-H460, 48 h). Moreover, at Histone deacetylase 8, the midpoint of inhibition, the IC50, lay at 43.2 µM.
As to `Cc1ccc(/C=N/NC(=S)N2CCN(C(=O)NO)CC2)cc1`, the GI50 in the assay with U-251 (Homo sapiens, U-251, 48 h) is 27.5 µM; in the assay on HCT-116 (Homo sapiens, HCT-116, 48 h) it was 31 µM; in the assay with NCI-H460 (Homo sapiens, NCI-H460, 48 h) it was 51 µM. In addition, the CC50 is greater than 100 µM in the assay with U-251 (Homo sapiens, U-251, 48 h); greater than 100 µM in the assay on HCT-116 (Homo sapiens, HCT-116, 48 h); greater than 100 µM with NCI-H460 (Homo sapiens, NCI-H460, 48 h).
In the case of `O=C(CCCCCCC(=O)Nc1ccccc1)NO` [VORINOSTAT], the 50% growth inhibitory concentration (GI50) in the assay with U-251 turned out to be 6.5 µM; in the assay on NCI-H460 it was 8 µM. Further, the CC50 in the assay on U-251, with HCT-116 and with NCI-H460 was greater than 100 µM in each case.

The GI50 is the concentration giving 50% growth inhibition. Low readings indicate more potent growth inhibition, high ones less potent growth inhibition. One may read the IC50 as the midpoint of a concentration-inhibition curve.
